Test results taken from PubChem BioAssay (NCI).
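Cells were grown in 96-well plates and exposed to each compound for 48 hours at five concentrations; endpoints were interpolated linearly between bracketing concentrations, or set to the highest concentration if not reached. TGI marks complete inhibition of growth.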

Key:
Experiment in all cases: growth of human tumour cells (NCI), 48 h
TK-10 renal = test system: TK-10 renal
IGROV1 ovarian = test system: IGROV1 ovarian
HOP-92 NSCLC = test system: HOP-92 NSCLC
HCC-2998 colon = test system: HCC-2998 colon
MOLT-4 leukemia = test system: MOLT-4 leukemia
786-0 renal = test system: 786-0 renal
SN12C renal = test system: SN12C renal
OVCAR-3 ovarian = test system: OVCAR-3 ovarian
UO-31 renal = test system: UO-31 renal
ACHN renal = test system: ACHN renal

Compound | TGI (TK-10 renal) [µM] | TGI (IGROV1 ovarian) [µM] | TGI (HOP-92 NSCLC) [µM] | TGI (HCC-2998 colon) [µM] | TGI (MOLT-4 leukemia) [µM] | TGI (786-0 renal) [µM] | TGI (SN12C renal) [µM] | TGI (OVCAR-3 ovarian) [µM] | TGI (UO-31 renal) [µM] | TGI (ACHN renal) [µM]
S=C1NC2=C(CSC/C2=C\c2ccccc2)C(c2ccccc2)N1 (stereo not drawn) | > 100 | > 100 | 97.4 | > 100 | > 100 | > 100 | > 100 | > 100 | > 100 | > 100
CC(C)C1=C(O)C2=C(C(=O)C1=O)C1(C)CCCC(C)(C)C1C(O)C2OC=O (stereo not drawn) | 26.2 | 22.2 | 20.1 | 19.2 | 6.91 | 19 | 23.2 | 25.9 | 18.8 | 13.2
CC1(C)OC2COC3([C@@H]4OC(C)(C)O[C@@H]4CO)OC(C)(C)OC3C2O1 (stereo partly drawn) |  | > 100 | > 100 | > 100 |  | > 100 | > 100 | > 100 | > 100 | > 100
Clc1nncc2sc(-c3ccccc3)nc12 | > 100 | 40.3 | 24 | > 45.7 | > 97.2 | > 100 | 57.7 | 33.8 | 55 | > 84.9
O=S1SC(=S)C2C=CC=CC21 (stereo not drawn) | > 100 | > 100 | > 100 | > 100 | > 100 | > 100 | > 100 | > 100 | > 100 | > 100
CSc1nc2c(ncn2C2OC(CO)C(O)C(O)C2O)c(=O)[nH]1 (stereo not drawn) |  | > 100 | > 100 | > 100 | > 100 |  | > 100 | > 100 | > 100 | 
C=C1C(=O)C23C(O)CC4C5(C)CCCC4(C(O)OC5)C2C(OC(C)=O)CC1C3O (stereo not drawn) | 23.1 | 39.2 | 14.6 | 32.4 | 17 | 19.2 | 24.3 | 28.2 | > 100 | 25.3
O=C1CS(=O)(=O)C(c2cccc(Oc3ccccc3)c2)N1c1cc(Cl)ccc1Cl (stereo not drawn) | 90.6 |  | 38.8 | 37.1 | > 100 | 34.8 | 39 | 35.1 | 43.7 | 43.1
CCN1C(=O)C(=C/C=C/c2ccc(N(CC)CC)cc2)C(=O)N(CC)C1=S | > 100 | > 100 | > 100 | > 100 | > 100 | > 100 | > 100 | 54.9 | > 100 | > 100
COc1ccc(N2C(=O)C3c4[nH]c5ccccc5c4C4CCCCCCCCCC4C3C2=O)cc1 (stereo not drawn) | > 10 | > 10 |  | > 10 | > 10 |  | > 10 | > 10 | > 10 | > 10
O=C(NN1C(=O)CSC1c1cccc(F)c1)c1ccncc1 (stereo not drawn) | > 100 | > 100 |  | > 100 | > 100 |  | > 100 |  | > 100 | > 100
CON(C)C(=O)C1CCCO1 (stereo not drawn) | > 100 | > 100 | > 100 |  | > 100 | > 100 | > 100 | > 100 | > 100 | > 100
O=C1C=CC(=O)C(CNc2ccc(C(=O)OCc3ccccc3)cc2)=C1 | 14.9 | 12.6 | 3.8 | 31.6 | > 100 | 13.6 | 19.3 | 7.23 | 7.49 | 12.9
C=CC(=O)N1C/C(=C\c2ccc(Cl)cc2)C(=O)/C(=C/c2ccc(Cl)cc2)C1 | 4.01 | 0.678 | 4.25 | 0.739 |  | 0.55 | 0.704 | 1.03 | 1.17 | 1.02
CCOC(=O)NC(Nc1c(F)c(F)c(F)c(F)c1F)(C(F)(F)F)C(F)(F)F | > 100 | > 100 | > 100 | > 100 | > 100 | > 100 | > 100 | > 100 | > 100 | > 100
O=[N+]([O-])c1cccc2c(N=Nc3ccc4ccccc4c3O)c(O)cc(S(=O)(=O)O)c12 | > 100 | > 100 | > 100 |  | > 100 | > 100 | > 100 | > 100 | 56.1 | > 100
COC(=O)C1(O)C(c2ccccc2)=NC2(C)CCCC21 (stereo not drawn) | > 100 | > 100 | > 100 | > 100 | > 100 | > 100 | > 100 | > 100 | > 100 | 
COc1ccc(C2c3cc4c(cc3OC(NCCO)C2C)OCO4)cc1 (stereo not drawn) | 66.1 | > 100 | 86.1 | 66 | 50 |  | 71.7 | 36.4 | 76.8 | 93.1
Cc1cc(C)c(/C=C(\C(=C/c2c(C)cc(C)cc2C)[N+](=O)[O-])[N+](=O)[O-])c(C)c1 | > 100 | > 100 | > 100 | > 100 | > 100 |  | > 100 | > 100 | > 100 | > 100
CC(=O)n1nc(-c2ccccc2)n(/N=C/c2ccc([N+](=O)[O-])o2)c1=O | 25.5 | 37.4 | 35.9 | 19.1 | 18.6 | 7.97 | 7.39 | 17 | 4.17 | 19.1
CCOP(=O)(OCC)OC1CC(n2cc(C)c(=O)n(C)c2=O)OC1CO[Si](C)(C)C(C)(C)C (stereo not drawn) | > 100 | > 100 |  | > 100 | > 100 | > 100 | > 100 | > 100 | 7.15 | > 100
O=C(O)CCCCCCCCC(=O)O |  | > 500 | > 500 | > 500 | > 500 |  | > 500 | > 500 | > 500 | 
CC1=NNC(=O)C1C1CC(c2c[nH]c3ccccc23)=NN=C1Cl (stereo not drawn) | > 100 | > 100 | > 100 |  | 75.8 | > 100 | > 100 | > 100 | > 100 | > 100
